Assay results published in patent US20230083417A1, “THERAPEUTIC COMBINATION FOR THE TREATMENT OF BRAIN ISCHEMIA AND SAID THERAPEUTIC COMBINATION FOR USE IN THE TREATMENT OF BRAIN ISCHEMIA” (Universiteit Maastricht, priority 2020, published 2023).
“Also recorded” adds a separate entry of the source.

How the values were obtained:
[1] = system: Human Brain Microvascular Endothelial Cells (HBMEC); test: HBMEC subjected to hypoxia (OGD), cell viability by MTT (Example 3); type: cell-based; details: 6 h hypoxia, 24 h reperfusion; GKT136901 0.1 μM, BAY58-2667 0.01 μM, STMC 0.3 μM, alone or combined
Experimental: Human Brain Microvascular Endothelial Cells (HBMEC) Subjected to Hypoxia. —HBMEC (Cell systems, USA) between passage 3 and 9 were cultured using specialized cell medium enriched with 5% fetal bovine serum. HBMECs were seeded (6×10^4 cells/ml) in 12 wells-plates and incubated during 24 h at 37° C. Later, cell medium was replaced for non-FBS containing medium followed by 6 h of hypoxia (94.8% N2, 0.2% O2 and 5% CO2) at 37° C. using hypoxia workstations. The hypoxia period was followed by 24 h of reperfusion in presence or absence of GKT136901 (GKT, 0.1 μM; NOXi), BAY58-2667 (BAY58, 0.01 μM; sGCa) or S-methyl-1-thiocitrulline (STMC, 0.3 μM; NOSi) or a combination of the three. Control cells were exposed to normoxia (75% N2, 20% O2 and 5% CO2), normal glucose concentration and enriched medium during the hypoxia period (Basal). After 24 h reperfusion, cell viability was assessed using the colorimetric MTT assay. MTT solution (5 mg/ml) was added to each well (100 μl/ml) and incubated for 2 h at 37° C. The formazan salt formed was solubilized by adding […] DMSO and measured spectrophotometrically at 540 nm.

[2] = system: mice subjected to 45 min tMCAO; test: 45 min tMCAO in non-diabetic and STZ-diabetic mice, infarct size; type: in vivo; details: i.p., GKT137831 10 mg/kg, SMTC 1 mg/kg, BAY58-2667 0.03 mg/kg, single or combined
Experimental: Diabetes was induced in mice (6-9 weeks old) by i.p. injections of streptozotocin (STZ) (Merck Millipore, The Netherlands) dissolved in 0.5M sodium citrate buffer with a final dose of 55 mg/kg during 5 consecutive days. Blood glucose was measured daily for 7 days after the last STZ injection using a glucometer (Contor XT, Ascensia Diabetes Care, The Netherlands). Blood glucose levels higher than 12 mM 7 days after STZ injections were considered diabetic and therefore included in the study. Diabetic mice were monitored daily for any signs of welfare discomfort, and blood glucose levels were followed-up weekly (FIG. 18 (Table S2), FIG. 19 (Table S3)).
Therefore, only the combination therapy was assessed.
After animal sacrificing, brains were quickly removed and cut into four 2 mm thick coronal sections using a mouse brain slicer matrix (Zivic Instruments, The Netherlands). Brain slices were kept at 4° C. during 5 min and later stained using 2% 2,3,5-triphenyltetrazolium (TTC; Sigma-Aldrich, The Netherlands) for 15 min at room temperature in PBS to visualize the infarctions. Indirect infarct volumes were calculated by volumetry (ImageJ software, National Institutes of Health, USA) according to the following equation:
Vindirect (mm^3)=Vinfarct×(1−(Vih−Vch)/Vch)
where the term (Vih−Vch) represents the volume difference between the ischemic hemisphere and the control hemisphere and (Vih−Vch)/Vch expresses this difference as a percentage of the control hemisphere.

[3] = system: Human Brain Microvascular Endothelial Cells (HBMECs); test: HBMEC under hypoxic conditions, cell viability by MTT (Example 5); type: cell-based; details: 6 h hypoxia, 24 h re-oxygenation; GKT137831 0.3 μM, SMTC 0.1 μM, BAY 58-2667 0.03 μM, single or combined
Experimental: HBME cells (Cell systems, USA) between passage 3 and 9 were cultured to ˜95% confluence using a specialized cell medium and grow factors (EGM-2 MV BulletKit, Lonza, The Netherlands) enriched with 5% fetal bovine serum (FBS; Sigma-Aldrich, The Netherlands). Before being subjected to hypoxia, HBMECs were seeded at 6×10^4 cells/ml in 12 wells-plate and incubated for 24 h at 37° C. Then, the cell medium was replaced with non-FBS containing medium (2 ml/well) followed by 6 h of hypoxia (94.8% N2, 0.2% 02 and 5% CO2) at 37° C. using the hypoxia workstations (Ruskin Invivo2 400 station, The Netherlands). […] Control cells were exposed to normoxia (75% N2, 20% O2, and 5% CO2) and enriched medium during the hypoxia period.
24 h post-re-oxygenation, cell viability was assessed using the colorimetric MTT (3-(4,5-dimethylthiazol-2-yl)-2,5-diphenyltetrazolium bromide) assay (24). MTT solution (5 mg/ml) was added (100 μl/ml) and incubated for 2 h at 37° C. The formazan salt formed was solubilized by adding DMSO (250 μl/well) for later measuring spectrophotometrically its optical density at 540 nm.

[4] = system: rat hippocampal brain slices; test: Rat hippocampal brain slices, OGD and re-oxygenation, cell viability by MTT; type: cell-based; details: 15 min OGD, 2 h re-oxygenation, GKT136901 0.1 μM, L-NAME 0.3 μM, BAY60-2770 0.01 μM, separately or combined at identical concentrations, vs untreated OGD
Source text: Rat Hippocampal Brain Slice Experiments. —2-3 months old adult male Sprague-Dawley rats were used. For hippocampal slices preparation and induction of oxygen deprivation and glucose deprivation (OGD), animals were decapitated and the brains were removed and transferred into ice-cold Krebs bicarbonate dissection buffer containing glucose and sucrose. Thereafter, hippocampi were dissected and sectioned in transverse slices of 250 μm. To stabilize tissue after slicing, slices were transferred to sucrose-free dissection buffer during 45 minutes at 34° C. Then, control group slices were incubated 15 minutes in a Krebs solution. Slices subjected to OGD were incubated in a Krebs buffer pre-bubbled with 95% N2/5% CO2, where 2-deoxyglucose replaced glucose. OGD period was followed by 2 h of re-oxygenation at 37° C. where slices were returned back to an oxygenated Krebs solution containing glucose^8. During the re-oxygenation period, slices were treated with 0.01 μM BAY60-2770 (BAY; sGCa), 0.1 μM GKT136901 (GKT; NOXi) and 0.3 μM L-NAME (LN; NOSi) separately and in combination at identical respective doses of: NOXi and NOSi, NOSi and sGCa, NOXi and sGCa, and NOXi, NOSi and sGCa. Cellular viability was quantified by their ability to reduce MTT. After re-oxygenation, slices were incubated with MTT (0.5 mg/ml) in Krebs bicarbonate solution for 40 minutes at 37° C. The formazan produced was solubilized by adding 200 μl dimethyl sulfoxide, giving a colored compound whose optical density was measured in an ELISA microplate reader at 540 nm^9. The results of these measurements are depicted in FIG. 2, FIG. 4, FIG. 6 and FIG. 7.

[5] = system: C57BL/6J mice subjected to middle cerebral artery occlusion (MCAO); test: In vivo MCAO ischemia model (1 h tMCAO), infarct volume by TTC; details: for infarct volume: i.p. 1 h after reperfusion, L-NAME 3 mg/kg, GKT136901 10 mg/kg, BAY60-2770 0.5 μg/kg; for infarct volume / infarct size, single therapy: 24 h; for infarct volume / infarct volume, subthreshold doses and triple combination: alone or combined at identical doses; for infarct volume, subthreshold doses and triple combination: 1 h post-ischemia, i.p., PTU 3 mg/kg, PPZ 1 mg/kg, riociguat 0.004 mg/kg; for infarct size, single therapy: i.p. 1 h post-reperfusion, perphenazine 3 mg/kg, PTU 9 mg/kg, riociguat 0.01 mg/kg
Experimental: In vivo MCAO Ischemia Model. —C57BL/6J mice were subjected to middle cerebral artery occlusion (MCAO) during 1 h followed by 24 h of reperfusion. Mice were anesthetized with 1.5% isoflurane (Abbott) in a 70% N2O/30% O2 mixture. Core body temperature was maintained at 37° C. The external carotid artery was ligated and a rubber-coated 6.0 nylon monofilament (6021; Doccol) was inserted to occlude the origin of the right MCA for 60 minutes. Then, animals were re-anesthetized and the occluding monofilament was withdrawn to allow for reperfusion^10. L-NAME (NOSi, 3 mg/kg) or propylthiouracil (NOSi, 9 mg/kg), GKT136901 (NOXi, 10 mg/kg) or perphenazine (NOXi, 3 mg/kg) and BAY60-2770 (sGCa, 0.5 μg/kg) or riociguat (sGCs, 0.1 mg/kg), as well as combinations of these compounds were dissolved and vehicle or compound(s) were injected intraperitoneally (i.p.) 1 h after reperfusion. After 23 h of reperfusion animals were sacrificed and brains were quickly removed and cut in 3 2-mm thick coronal sections. The slices were stained for 10 minutes at 37° C. with 2% 2,3,5-triphenyltetrazolium chloride (TTC, Sigma-Aldrich) in PBS to visualize the infarct volume. The results of these measurements are shown in FIG. 1, FIG. 3, FIG. 5 and FIG. 9.
Based on a repurposing strategy, already marketed compounds validated as NOX inhibitors and NOS inhibitors were selected for further pre-clinical experimentation. Similarly, an already approved sGC stimulator was included repurposed for a non-cardiovascular indication. Wildtype mice were subjected to 1 h tMCAO and subsequently treated with each compound separately, in double combination or triple for later assessment of infarct volume 24 h post-stroke (FIG. 15A-G).

Compound	cell viability (MTT) [1]	infarct size 24 h post-stroke, non-diabetic mice [2]	cell viability, normal glucose [3]	infarct volume [5]	infarct volume, subthreshold doses and triple combination [5]	infarct size, single therapy [5]	further results
O=C(O)CCCCN(CCc1ccccc1OCc1ccc(CCc2ccccc2)cc1)Cc1ccc(C(=O)O)cc1 [BAY58-2667, cinaciguat]	lower cell viability than the control cells (Basal)	no effect was detected	no reduction was detected				
O=C(O)CCCCN(CCc1cc(F)ccc1OCc1ccc(-c2ccc(C(F)(F)F)cc2)cc1)Cc1ccc(C(=O)O)cc1 [BAY60-2770]				potent activity in reducing the infarct volume			cell viability (MTT reduction) [4]: Neither the NOSi (L-NAME), nor the sGCa (BAY60) alone was able to improve cell viability; cell viability (MTT reduction) ([4]; listed as BAY): did not show improved cell viability; infarct volume ([5]; listed as BAY60): reduced infarct volume
Cc1c2c(=O)n(-c3ccccc3Cl)[nH]c2cc(=O)n1Cc1ccccn1 [GKT136901]	only a relatively small improvement in cell viability			potent activity in reducing the infarct volume			cell viability (MTT reduction) ([4]; listed as GKT): able to restore the cell viability of the hippocampal cells to some extent; also recorded: able to improve cell viability
CN(C)c1cccc(-c2c3c(=O)n(-c4ccccc4Cl)[nH]c3cc(=O)n2C)c1 [GKT137831]		no effect was detected	no reduction was detected				
COC(=O)[C@@H](N)CCCNC(=N)N[N+](=O)[O-] [L-NAME, N omega-Nitro-L-arginine methyl ester]				potent activity in reducing the infarct volume			cell viability (MTT reduction) [4]: Neither the NOSi (L-NAME), nor the sGCa (BAY60) alone was able to improve cell viability; cell viability (MTT reduction) ([4]; listed as LN): able to restore the cell viability of the hippocampal cells to some extent; infarct volume ([5]; listed as LN): reduced infarct volume
OCCN1CCN(CCCN2c3ccccc3Sc3ccc(Cl)cc32)CC1 [PPZ, perphenazine]					not able to reduce infarct volume; also recorded: no reduction of infarct volume; also recorded: without effect	significantly smaller infarct size	
CCCc1cc(=O)[nH]c(=S)[nH]1 [PTU, propylthiouracil]					not able to reduce infarct volume; also recorded: no reduction of infarct volume; also recorded: without effect	tends to reduce	
COC(=O)N(C)c1c(N)nc(-c2nn(Cc3ccccc3F)c3ncccc23)nc1N [Rio, riociguat]					not able to reduce infarct volume; also recorded: no reduction of infarct volume; also recorded: without effect	significantly smaller infarct size	
CSC(N)=NCCC[C@H](N)C(=O)O [SMTC, S-Methyl-L-thiocitrulline]	only a relatively small improvement in cell viability	no effect was detected	no reduction was detected				
